Data: US20240246941A1, “SUBSTITUTED 4-(3-AMINOPROP-1-YL)AMINOQUINOLINE ANALOGS AS MODULATORS OF MELANOMA-ASSOCIATED ANTIGEN 11 UBIQUITIN LIGASE” (ST. JUDE CHILDREN'S RESEARCH HOSPITAL, INC., priority 2020, published 2024)
Where two headings read alike, the source gives them in different places.

Target: interaction between GST-MAGEA11 MHD and FAM-PCF11_4 peptide (MAGE-A11:PCF11) (Homo sapiens (Human), UniProt P43364)
Experiment: TR-FRET dose response competition assay for disruption of MAGE-A11:PCF11 binding
In short: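 Competition TR-FRET at room temperature in 50 mM Tris pH 7.5, 20 mM MgCl2, 0.1 mg/ml BSA, 1 mM DTT: final 5 nM GST-MAGEA11 MHD, 5 nM Tb-anti-GST, 200 nM FAM-PCF11_4, 90 min. Ratio 520/490 nm converted to % inhibition; IC50 from sigmoidal fit.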

[1] = Table 8, representative compounds, read-out: TR-FRET IC50
[2] = Dose response TR-FRET screening of nine scaffold groups against MAGE-A11:PCF11, read-out: consensus IC50
[3] = Table 5, dose response TR-FRET screening of 59 quinoline compounds against MAGE-A11:PCF11, read-out: TR-FRET IC50
[4] = Table 6, 4-aminoquinoline compounds, read-out: TR-FRET, IC50
[5] = read-out: IC50 by TR-FRET for disrupting MAGE-A11:PCF11 interaction

Sequence of interaction between GST-MAGEA11 MHD and FAM-PCF11_4 peptide (MAGE-A11:PCF11) (P43364 218-429): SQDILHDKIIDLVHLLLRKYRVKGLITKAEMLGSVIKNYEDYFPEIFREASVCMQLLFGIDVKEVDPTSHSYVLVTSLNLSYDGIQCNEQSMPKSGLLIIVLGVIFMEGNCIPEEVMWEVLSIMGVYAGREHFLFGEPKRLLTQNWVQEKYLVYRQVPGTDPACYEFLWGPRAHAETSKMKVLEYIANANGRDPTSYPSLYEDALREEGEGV

Compound	IC50 [1] [µM]	IC50 [2] [µM]	also measured
COc1cccc(CNCCC/N=C2/C=CNC3=CC=C(CC(C)C)C=CC32)c1O (stereo not drawn) [SJ000311259]	68.5	–	–
CC(C)Cc1ccc2c(NCCCNCc3cccc4c3OCO4)ccnc2c1 [SJ000311260-1]	–	69.9	–
CC(C)Cc1ccc2c(NCCCNCc3cccc4c3OCO4)ccnc2c1 [SJ000311260]	69.9	–	–
COc1ccc(F)cc1CNCCCNc1ccnc2cc(CC(C)C)ccc12 [SJ000311261-1]	–	69.9	–
COc1ccc(F)cc1CNCCCNc1ccnc2cc(CC(C)C)ccc12 [SJ000311261]	69.9	–	–
c1coc(CNCCCNc2ccnc3cc(C4CCCCC4)ccc23)c1 [SJ000311262-1]	–	–	IC50 [3]: > 70 µM
COc1cccc(CNCCCNc2ccnc3cc(C4CCCCC4)ccc23)c1O [SJ000311263-1]	–	32.4	–
COc1cccc(CNCCCNc2ccnc3cc(C4CCCCC4)ccc23)c1O [SJ000311263]	32.4	–	–
c1cc(CNCCCNc2ccnc3cc(C4CCCCC4)ccc23)c2c(c1)OCO2 [SJ000311264-1]	–	23.7	–
c1cc(CNCCCNc2ccnc3cc(C4CCCCC4)ccc23)c2c(c1)OCO2 [SJ000311264]	23.7	–	–
COc1ccc(F)cc1CNCCCNc1ccnc2cc(C3CCCCC3)ccc12 [SJ000311265-1]	–	24.2	–
COc1ccc(F)cc1CNCCCNc1ccnc2cc(C3CCCCC3)ccc12 [SJ000311265]	24.2	–	–
CCC(CC)c1ccc2c(NCCCNCc3cccc(OC)c3O)ccnc2c1 [SJ000311267-1]	–	9.95	–
CCC(CC)c1ccc2c(NCCCNCc3cccc(OC)c3O)ccnc2c1 [SJ000311267]	9.95	–	–
CCC(CC)c1ccc2c(NCCCNCc3cccc4c3OCO4)ccnc2c1 [SJ000311268-1]	–	28.9	–
CCC(CC)c1ccc2c(NCCCNCc3cccc4c3OCO4)ccnc2c1 [SJ000311268]	28.9	–	–
CCC(CC)c1ccc2c(NCCCNCc3cc(F)ccc3OC)ccnc2c1 [SJ000311269-1]	–	43	–
CCC(CC)c1ccc2c(NCCCNCc3cc(F)ccc3OC)ccnc2c1 [SJ000311269]	43	–	–
COc1cccc(CNCCCNc2ccnc3cc(-c4cc(C(F)(F)F)cc(C(F)(F)F)c4)ccc23)c1O [SJ000311271-1]	–	69.9	–
COc1cccc(CNCCCNc2ccnc3cc(-c4cc(C(F)(F)F)cc(C(F)(F)F)c4)ccc23)c1O [SJ000311271]	69.9	–	–
FC(F)(F)c1cc(-c2ccc3c(NCCCNCc4cccc5c4OCO5)ccnc3c2)cc(C(F)(F)F)c1 [SJ000311272-1]	–	9.02	–
FC(F)(F)c1cc(-c2ccc3c(NCCCNCc4cccc5c4OCO5)ccnc3c2)cc(C(F)(F)F)c1 [SJ000311272]	9.02	–	–
COc1ccc(F)cc1CNCCCNc1ccnc2cc(-c3cc(C(F)(F)F)cc(C(F)(F)F)c3)ccc12 [SJ000311273-1]	–	7.69	–
COc1ccc(F)cc1CNCCCNc1ccnc2cc(-c3cc(C(F)(F)F)cc(C(F)(F)F)c3)ccc12 [SJ000311273]	7.69	–	–
c1coc(CNCCCNc2ccnc3cc(-c4cccc5ccccc45)ccc23)c1 [SJ000311274-1]	–	–	IC50 [3]: > 70 µM
COc1cccc(CNCCCNc2ccnc3cc(-c4cccc5ccccc45)ccc23)c1O [SJ000311275-1]	–	16	–

Compound	IC50 [1] [µM]	IC50 [2] [µM]	also measured
COc1cccc(CNCCCNc2ccnc3cc(C4=CC=CC5=CC=CC=CC54)ccc23)c1O (stereo not drawn) [SJ000311275]	16	–	–
c1cc(CNCCCNc2ccnc3cc(-c4cccc5ccccc45)ccc23)c2c(c1)OCO2 [SJ000311276-1]	–	31.2	–
c1cc(CNCCCNc2ccnc3cc(-c4cccc5ccccc45)ccc23)c2c(c1)OCO2 [SJ000311276]	31.2	–	–
COc1ccc(F)cc1CNCCCNc1ccnc2cc(-c3cccc4ccccc34)ccc12 [SJ000311277-1]	–	10.3	–
COc1ccc(F)cc1CNCCCNc1ccnc2cc(-c3cccc4ccccc34)ccc12 [SJ000311277]	10.3	–	–
FC(F)(F)c1ccc(-c2ccc3c(NCCCNCc4ccco4)ccnc3c2)cc1 [SJ000311278-1]	–	–	IC50 [3]: 22.7 µM
COc1cccc(CNCCCNc2ccnc3cc(-c4ccc(C(F)(F)F)cc4)ccc23)c1O [SJ000311279-1]	–	9.52	–
COc1cccc(CNCCCNc2ccnc3cc(-c4ccc(C(F)(F)F)cc4)ccc23)c1O [SJ000311279]	9.52	–	–
FC(F)(F)c1ccc(-c2ccc3c(NCCCNCc4cccc5c4OCO5)ccnc3c2)cc1 [SJ000311280-01]	15.7	–	IC50 [4]: 4.07 µM; IC50 [5]: 4.07 µM
COc1ccc(F)cc1CNCCCNc1ccnc2cc(-c3ccc(C(F)(F)F)cc3)ccc12 [SJ000311281-01]	13.4	–	IC50 [4]: 5.58 µM; IC50 [5]: 5.58 µM
COc1cccc(CNCCCNc2ccnc3cc(-c4ccccc4)ccc23)c1O [SJ000311283-1]	–	24.1	–
COc1cccc(CNCCCNc2ccnc3cc(-c4ccccc4)ccc23)c1O [SJ000311283]	24.1	–	–
c1ccc(-c2ccc3c(NCCCNCc4cccc5c4OCO5)ccnc3c2)cc1 [SJ000311284-01]	22.2	–	IC50 [4]: 20.6 µM; IC50 [5]: 20.6 µM
COc1ccc(F)cc1CNCCCNc1ccnc2cc(-c3ccccc3)ccc12 [SJ000311285-1]	–	28.2	–
COc1ccc(F)cc1CNCCCNc1ccnc2cc(-c3ccccc3)ccc12 [SJ000311285]	28.2	–	–
COc1cccc(CNCCCNc2ccnc3cc(-c4ccc(C(C)(C)C)cc4)ccc23)c1O [SJ000311287-1]	–	4.67	–
COc1cccc(CNCCCNc2ccnc3cc(-c4ccc(C(C)(C)C)cc4)ccc23)c1O [SJ000311287]	4.67	–	–
CC(C)(C)c1ccc(-c2ccc3c(NCCCNCc4cccc5c4OCO5)ccnc3c2)cc1 [SJ000311288-1]	–	6.87	–
CC(C)(C)c1ccc(-c2ccc3c(NCCCNCc4cccc5c4OCO5)ccnc3c2)cc1 [SJ000311288]	6.87	–	–
COc1ccc(F)cc1CNCCCNc1ccnc2cc(-c3ccc(C(C)(C)C)cc3)ccc12 [SJ000311289-1]	–	4.62	–
COc1ccc(F)cc1CNCCCNc1ccnc2cc(-c3ccc(C(C)(C)C)cc3)ccc12 [SJ000311289]	2.04	–	–
c1coc(CNCCCNc2ccnc3cc(-c4ccc5c(c4)OCO5)ccc23)c1 [SJ000311290-1]	–	–	IC50 [3]: > 70 µM
COc1cccc(CNCCCNc2ccnc3cc(-c4ccc5c(c4)OCO5)ccc23)c1O [SJ000311291-1]	–	24.6	–
COc1cccc(CNCCCNc2ccnc3cc(-c4ccc5c(c4)OCO5)ccc23)c1O [SJ000311291]	24.6	–	–
c1cc(CNCCCNc2ccnc3cc(-c4ccc5c(c4)OCO5)ccc23)c2c(c1)OCO2 [SJ000311292-1]	–	30.5	–
c1cc(CNCCCNc2ccnc3cc(-c4ccc5c(c4)OCO5)ccc23)c2c(c1)OCO2 [SJ000311292]	30.5	–	–

Compound	IC50 [1] [µM]	IC50 [2] [µM]	also measured
COc1ccc(F)cc1CNCCCNc1ccnc2cc(-c3ccc4c(c3)OCO4)ccc12 [SJ000311293-1]	–	29.9	–
COc1ccc(F)cc1CNCCNc1ccnc2cc(-c3ccc4c(c3)OCO4)ccc12 [SJ000311293]	29.9	–	–
COc1ccc(-c2ccc3c(NCCCNCc4cccc(OC)c4O)ccnc3c2)cc1 [SJ000311295-1]	–	69.9	–
COc1ccc(-c2ccc3c(NCCCNCc4cccc(OC)c4O)ccnc3c2)cc1 [SJ000311295]	69.9	–	–
COc1ccc(-c2ccc3c(NCCCNCc4cccc5c4OCO5)ccnc3c2)cc1 [SJ000311296-1]	–	69.9	–
COc1ccc(-c2ccc3c(NCCCNCc4cccc5c4OCO5)ccnc3c2)cc1 [SJ000311296]	69.9	–	–
COc1ccc(-c2ccc3c(NCCCNCc4cc(F)ccc4OC)ccnc3c2)cc1 [SJ000311297-1]	–	69.9	–
COc1ccc(-c2ccc3c(NCCCNCc4cc(F)ccc4OC)ccnc3c2)cc1 [SJ000311297]	69.9	–	–
COc1cccc(CNCCCNc2ccnc3cc(Cc4cccc(C(F)(F)F)c4)ccc23)c1O [SJ000311299-1]	–	27.5	–
COc1cccc(CNCCCNc2ccnc3cc(Cc4cccc(C(F)(F)F)c4)ccc23)c1O [SJ000311299]	27.5	–	–
FC(F)(F)c1cccc(Cc2ccc3c(NCCCNCc4cccc5c4OCO5)ccnc3c2)c1 [SJ000311300-1]	–	12.8	–
FC(F)(F)c1cccc(Cc2ccc3c(NCCCNCc4cccc5c4OCO5)ccnc3c2)c1 [SJ000311300]	12.8	–	–
COc1ccc(F)cc1CNCCCNc1ccnc2cc(Cc3cccc(C(F)(F)F)c3)ccc12 [SJ000311301-2]	–	22.1	–
COc1ccc(F)cc1CNCCCNc1ccnc2cc(Cc3cccc(C(F)(F)F)c3)ccc12 [SJ000311301]	22.2	–	–
COc1cccc(CNCCCNc2ccnc3cc(Cc4ccc(C#N)cc4)ccc23)c1O [SJ000311303-1]	–	51	–
COC1CCCC(CNCCCNc2ccnc3cc(Cc4ccc(C#N)cc4)ccc23)C1O (stereo not drawn) [SJ000311303]	51	–	–
N#Cc1ccc(Cc2ccc3c(NCCCNCc4cccc5c4OCO5)ccnc3c2)cc1 [SJ000311304-1]	–	66	–
N#Cc1ccc(Cc2ccc3c(NCCCNCc4cccc5c4OCO5)ccnc3c2)cc1 [SJ000311304]	66	–	–
COc1ccc(F)cc1CNCCCNc1ccnc2cc(Cc3ccc(C#N)cc3)ccc12 [SJ000311305-1]	–	69.9	–
COc1ccc(F)cc1CNCCCNc1ccnc2cc(Cc3ccc(C#N)cc3)ccc12 [SJ000311305]	69.9	–	–
c1ccc(Cc2ccc3c(NCCCNCc4ccco4)ccnc3c2)cc1 [SJ000311306-2]	–	–	IC50 [3]: 32.2 µM
COc1cccc(CNCCCNc2ccnc3cc(Cc4ccccc4)ccc23)c1O [SJ000311307-1]	–	69.9	–
COc1cccc(CNCCCNc2ccnc3cc(Cc4ccccc4)ccc23)c1O [SJ000311307]	69.9	–	–
c1ccc(Cc2ccc3c(NCCCNCc4cccc5c4OCO5)ccnc3c2)cc1 [SJ000311308-1]	–	46.1	–
c1ccc(Cc2ccc3c(NCCCNCc4cccc5c4OCO5)ccnc3c2)cc1 [SJ000311308]	46.1	–	–
COc1ccc(F)cc1CNCCCNc1ccnc2cc(Cc3ccccc3)ccc12 [SJ000311309-1]	–	18.3	–
